Results: article PMC8175350, “Drug repurposing screens identify chemical entities for the development of COVID-19 interventions” (Nature Communications, 2021)
Several values for one entry are separate records, joined by “and”; a condition that tells them apart may be missing. Identical values can stand only once. Counter-ions that a name gives are not always drawn. Like-named read-outs stand apart in the source and are kept apart here.

What was measured:
[1] = Uninfected HeLa-ACE2 24 h live/dead cytotoxicity counter screen; assay type: cell-based, human; settings: human, uninfected HeLa-ACE2 cells
HeLa-ACE2 cells [2] = test: as above; assay type: cell-based, human; settings: curve plateau at infinite concentration
[3] = Pharmacokinetic studies in Syrian hamsters, PO; assay type: in vivo; settings: 500 mg/kg PO; for AUC(0-t): po, 500 mg/kg
Description: Pharmacokinetic studies were conducted at Scripps Research Institute’s Animal Models Core in accordance with IACUC guidelines (IACUC Protocol #09-0004-5). Eight-week-old male Syrian Hamsters (Charles River; three per group) were dosed PO as indicated for each compound and formulation. Plasma concentration of each test article was monitored up to 48 h. Nelfinavir was formulated in 10% DMSO/90% corn oil and MK-4482 was formulated in 10% PEG400/2.5% Cremaphor RH40 for both pharmacokinetic and efficacy studies.

SARS-CoV-2 [4] = test: Golden Syrian hamster SARS-CoV-2 efficacy model, body weight; assay type: in vivo; settings: for hamster weight relative to day 0, individual animals: 500 mg/kg PO
SARS-CoV-2 [5] = assay type: cell-based
SARS-CoV-2 [6] = test: Hamster lung viral titer by plaque assay, day 5; assay type: in vivo, Golden Syrian hamster; settings: 500 mg/kg PO; values look like log10
SARS-CoV-2 [7] = test: microbe, parasite or virus in culture; assay type: cell-based
Calu-3 cells [8] = test: cells; settings: Homo sapiens
HeLa-ACE2 cells [9] = test: Total cell count in the HeLa-ACE2 TOA assay; assay type: cell-based; settings: Homo sapiens
Description: Supplement 41467_2021_23328_MOESM3_ESM.xlsx, sheet "Table S1" | column: HeLa-ACE2 TOA cell count

[10] = ref [33]-[49], cited from earlier work
HepG2 = HepG2 72 h CellTiter-Glo cytotoxicity; settings: 72 h
[11] = HepG2 72 h CellTiter-Glo cytotoxicity; settings: human, HepG2 cells
[12] = HEK293T 72 h CellTiter-Glo cytotoxicity; settings: human, HEK293T cells
HEK293T = HEK293T 72 h CellTiter-Glo cytotoxicity; settings: 72 h
HeLa-ACE2 cells [13] = test: cells; settings: Homo sapiens, HeLa-ACE2, read-out: HeLa-ACE2 cell count EC50 GeoMean
[14] = Uninfected Calu-3 48 h Cell-Titer Glo cytotoxicity counter screen; settings: human, uninfected Calu-3 cells, Calu-3 Uninf. cells CC50 (µM), reconfirmed hits
Calu-3 cells [15] = test: as above; settings: curve plateau at infinite concentration
SARS-CoV-2 [16] = assay type: cell-based; settings: 72 hpi
SARS-CoV-2 [17] = test: microbe, parasite or virus in culture; assay type: cell-based; remark: listed apart in the source
SARS-CoV-2 [18] = test: microbe, parasite or virus in culture; assay type: cell-based; remark: listed apart in the source
[19] = male, Syrian, hamster, plasma, 10%DMSO/90% Corn Oil

Q: Which results are given for `Cc1c(O)cccc1C(=O)N[C@@H](CSc1ccccc1)[C@H](O)CN1C[C@H]2CCCC[C@H]2C[C@H]1C(=O)NC(C)(C)C` [Nelfinavir mesylate]?
A: CC50 at 24 h ([1]; reconfirmed hits, read-out: HeLa-ACE2 Uninf. cells CC50): > 18 µM; CC50 at 24 h ([1]; read-out: HeLa-ACE2 uninfected cytotoxicity CC50 GeoMean): > 18 µM; HeLa-ACE2 uninfected cytotoxicity Sinf Average (HeLa-ACE2 cells [2]): -100%; plasma level of nelfinavir, individual animals ([3]; 0:30:00): 40.7 and 326 and 282; plasma level of nelfinavir, individual animals ([3]; 1:00:00): 20.2 and 6320 and 206; plasma level of nelfinavir, individual animals ([3]; 3:00:00): 108 and 244 and 71.4; plasma level of nelfinavir, individual animals ([3]; 7:00:00): 156 and 276 and 245; Cl (mL/min/kg) ([3]; 10%DMSO/90% Corn Oil): 2,542.16 mL/min/kg; Vd ([3]; 10%DMSO/90% Corn Oil): 706.35 L/kg; plasma level of nelfinavir, individual animals ([3]; 24:00:00): BQL and 41 and 2.73; plasma level of nelfinavir, individual animals ([3]; 32:00:00): BQL and 16.9 and 0.47; plasma level of nelfinavir, individual animals ([3]; 48:00:00): BQL (2×) and 1.81; plasma exposure versus HeLa-ACE2 SARS-CoV-2 EC50 ([3]; hamster): failed to reach exposures above HeLa-ACE2 SARS-CoV-2 EC50; AUC(0-t) ([3]; male, Syrian, hamster, plasma, 10%DMSO/90% Corn Oil, read-out: AUC0-24): 3760 ng·h/mL; AUC(0-t) ([3]; male, Syrian, hamster, plasma, 10%DMSO/90% Corn Oil, read-out: AUCLAST): 3870 ng·h/mL; AUC(0-inf) [3, 19]: 5480 ng·h/mL; Cmax [3, 19]: 2250 ng/mL; MRT [3, 19]: 5.82 h; Tmax [3, 19]: 2.83 h; half-life [3, 19]: 4.02 h; protection from weight loss and viral replication (SARS-CoV-2 [4]; 500 mg/kg PO BID): failed to protect animals from weight loss and viral replication; hamster weight relative to day 0, individual animals (SARS-CoV-2 [4]; Day 1): 99.1786 and 96.9182 and 97.0207 and 99.8527; hamster weight relative to day 0, individual animals (SARS-CoV-2 [4]; Day 2): 97.2793 and 94.4654 and 95.1466 and 96.8581; hamster weight relative to day 0, individual animals (SARS-CoV-2 [4]; Day 3): 95.4312 and 90.7547 and 93.8011 and 92.8326; hamster weight relative to day 0, individual animals (SARS-CoV-2 [4]; Day 4): 92.4025 and 86.7925 and 92.1672 and 89.1998; hamster weight relative to day 0, individual animals (SARS-CoV-2 [4]; Day 5): 90.1951 and 82.0755 and 91.0139 and 86.6961; Synergy score with remdesivir (δ) (SARS-CoV-2 [5]): −1.23; interaction with remdesivir (SARS-CoV-2 [5]; ZIP model): additive (Additive effect: -10< δ <10); dose-response point, normalized infected cells (SARS-CoV-2 [5]; alone, Concentration [uM] -7.08145): 8.854 and 6.527 and 6.904; HeLa-ACE2 synergy score with remdesivi [δ] (SARS-CoV-2 [5]; combination with remdesivir, synergy score δ): -1.233; viral titers in lungs, individual animals (SARS-CoV-2 [6]): 9.667 and 7.176 and 8.778 and 9.217; Emax (SARS-CoV-2 [7]; Severe acute respiratory syndrome coronavirus 2, Calu-3, 48 h, curve plateau at infinite concentration, read-out: Calu-3 CoV-2 Sinf Average): 90%; EC50 (SARS-CoV-2 [7]; Severe acute respiratory syndrome coronavirus 2, Calu-3, reconfirmed hits, read-out: Calu-3 SARS-CoV-2 EC50): 0.361 µM; Emax (Calu-3 cells [8]; Calu-3, 48 h, read-out: Calu-3 cell count Sinf Average): 79%; EC50 (Calu-3 cells [8]; Calu-3, read-out: Calu-3 cell count EC50 GeoMean): 0.875 µM; Emax (HeLa-ACE2 cells [9]; HeLa-ACE2, 10 h, read-out: HeLa-ACE2 TOA cell count Sinf Average): 100%; EC50 (HeLa-ACE2 cells [9]; HeLa-ACE2, read-out: HeLa-ACE2 TOA cell count EC50 GeoMean): > 9.6 µM; Approx. t1/2 ([10]; human): 7 h; Cmax ([10]; read-out: Approx. Cmax, human oral): 17 µM; HepG2 72-hour cytotoxicity Sinf Average (HepG2): -100%; CC50 at 72 h [11]: > 39.8 µM; CC50 at 72 h [12]: 15.7 µM; HEK293T 72-hour cytotoxicty Sinf Average (HEK293T): -100%; EC50 (HeLa-ACE2 cells [13]): > 9.6 µM; CC50 at 48 h [14]: > 9.4 µM; Calu-3 uninfected cytotoxicity Sinf Average (Calu-3 cells [15]): -93%; reduction in apical viral loads (SARS-CoV-2 [16]): > 1 log; Emax (SARS-CoV-2 [17]; Severe acute respiratory syndrome coronavirus 2, HeLa-ACE2, 24 h, curve plateau at infinite concentration, read-out: HeLa-ACE2 CoV-2 Sinf Average): 100%; EC50 (SARS-CoV-2 [17]; Severe acute respiratory syndrome coronavirus 2, HeLa-ACE2, reconfirmed hits, read-out: HeLa-ACE2 SARS-CoV-2 EC50): > 8.64 µM; Emax (SARS-CoV-2 [18]; Severe acute respiratory syndrome coronavirus 2, HeLa-ACE2, 10 h, curve plateau at infinite concentration, read-out: HeLa-ACE2 TOA CoV-2 Sinf Average): 100%; EC50 (SARS-CoV-2 [18]; Severe acute respiratory syndrome coronavirus 2, HeLa-ACE2, read-out: HeLa-ACE2 TOA CoV-2 EC50 GeoMean): > 8.35 µM
